# Experimental data as given in patent US20160038468A1 (priority 2013, published 2016).
# Read-outs that look alike come from different tables or passages of the source.
# Legend:
# Type in all cases: cell-based
# Anaerococcus tetradius = assay: Agar dilution MIC (CLSI), Anaerococcus tetradius vaginal isolates; details: for MIC: read-out: Minimal Inhibitory Concentration (MIC); for Number of strains with indicated MIC: 21 samples
# [1] = system: Megasphaera-like bacteria; assay: Agar dilution MIC (CLSI), Megasphaera-like bacteria vaginal isolates; details: for MIC: read-out: Minimal Inhibitory Concentration (MIC); for Number of strains with indicated MIC: 25 samples
# Prevotella bivia = assay: Agar dilution MIC (CLSI), Prevotella bivia vaginal isolates; details: for MIC: Prevotella bivia, read-out: Minimal Inhibitory Concentration (MIC)
# [2] = Anaerococcus tetradius, # tested 21
smiles,measurement,setting,value
CO[C@H]1/C=C/O[C@@]2(C)Oc3c(C)c(O)c4c(O)c(c5c(nc6cc(C)ccn65)c4c3C2=O)NC(=O)/C(C)=C\C=C\[C@H](C)[C@H](O)[C@@H](C)[C@@H](O)[C@@H](C)[C@H](OC(C)=O)[C@@H]1C [Rifaximin],MIC Range,Anaerococcus tetradius; # tested 21,0.00375 to 0.125 µg/mL
same,MIC,"Anaerococcus tetradius; Anaerococcus tetradius, isolate 601098V T",0.06 µg/mL
same,MIC,"Anaerococcus tetradius; Anaerococcus tetradius, isolate 601103V 21",0.06 µg/mL
same,MIC,"Anaerococcus tetradius; Anaerococcus tetradius, isolate 601175V I",0.125 µg/mL
same,MIC,"Anaerococcus tetradius; Anaerococcus tetradius, isolate 601202V 11",0.06 µg/mL
same,MIC,"Anaerococcus tetradius; Anaerococcus tetradius, isolate 601212V 14",0.06 µg/mL
same,MIC,"Anaerococcus tetradius; Anaerococcus tetradius, isolate 601221V 12",0.00375 µg/mL
same,MIC,"Anaerococcus tetradius; Anaerococcus tetradius, isolate 601222V 15",0.06 µg/mL
same,MIC,"Anaerococcus tetradius; Anaerococcus tetradius, isolate 601242V 17",0.06 µg/mL
same,MIC,"Anaerococcus tetradius; Anaerococcus tetradius, isolate 601256V 9",0.06 µg/mL
same,MIC,"Anaerococcus tetradius; Anaerococcus tetradius, isolate 601287V V",0.06 µg/mL
same,MIC,"Anaerococcus tetradius; Anaerococcus tetradius, isolate 601305V J",0.015 µg/mL
same,MIC,"Anaerococcus tetradius; Anaerococcus tetradius, isolate 601326V H",0.06 µg/mL
same,MIC,"Anaerococcus tetradius; Anaerococcus tetradius, isolate 601340V 25",0.06 µg/mL
same,MIC,"Anaerococcus tetradius; Anaerococcus tetradius, isolate 601342V N",0.06 µg/mL
same,MIC,"Anaerococcus tetradius; Anaerococcus tetradius, isolate 601368V 42",0.06 µg/mL
same,MIC,"Anaerococcus tetradius; Anaerococcus tetradius, isolate 601369V 12",0.03 µg/mL
same,MIC,"Anaerococcus tetradius; Anaerococcus tetradius, isolate 601379V 25",0.06 µg/mL
same,MIC,"Anaerococcus tetradius; Anaerococcus tetradius, isolate 601401V T",0.06 µg/mL
same,MIC,"Anaerococcus tetradius; Anaerococcus tetradius, isolate 601429V 15",0.015 µg/mL
same,MIC,"Anaerococcus tetradius; Anaerococcus tetradius, isolate 601450V 22",0.06 µg/mL
same,MIC,"Anaerococcus tetradius; Anaerococcus tetradius, isolate 602375V 22",0.015 µg/mL
same,MIC50,Anaerococcus tetradius; [2],0.06 µg/mL
same,MIC90,Anaerococcus tetradius; [2],0.06 µg/mL
same,Number of strains with indicated MIC,Anaerococcus tetradius; MIC 0.00375 μg/ml,1
same,Number of strains with indicated MIC,Anaerococcus tetradius; MIC 0.015 μg/ml,3
same,Number of strains with indicated MIC,Anaerococcus tetradius; MIC 0.03 μg/ml,1
same,Number of strains with indicated MIC,Anaerococcus tetradius; MIC 0.06 μg/ml,15
same,Number of strains with indicated MIC,Anaerococcus tetradius; MIC […],1
same,MIC,"[1]; 427510 h, isolate 427507 H",0.015 µg/mL
same,MIC50,[1]; # tested 25,0.015 µg/mL
same,MIC90,[1]; # tested 25,0.015 µg/mL
same,MIC Range,[1]; # tested 25,0.0075 to 0.015 µg/mL
same,Number of strains with indicated MIC,[1]; MIC 0.0075 μg/ml,3
same,Number of strains with indicated MIC,[1]; MIC 0.015 μg/ml,22
same,MIC,[1]; isolate 426749 T,0.0075 µg/mL
same,MIC,[1]; isolate 426766 Q,0.015 µg/mL
same,MIC,[1]; isolate 426788 8a,0.015 µg/mL
same,MIC,[1]; isolate 426788 C,0.015 µg/mL
same,MIC,[1]; isolate 427470 10,0.015 µg/mL
same,MIC,[1]; isolate 427490 2u,0.015 µg/mL
same,MIC,[1]; isolate 427509 A,0.015 µg/mL
same,MIC,[1]; isolate 427522 8,0.015 µg/mL
same,MIC,[1]; isolate 600770 O,0.015 µg/mL
same,MIC,[1]; isolate 600790 N,0.015 µg/mL
same,MIC,[1]; isolate 600796 V,0.015 µg/mL
same,MIC,[1]; isolate 600831 9,0.015 µg/mL
same,MIC,[1]; isolate 600837 18,0.015 µg/mL
same,MIC,[1]; isolate 600861 P,0.015 µg/mL
same,MIC,[1]; isolate 602236 E3,0.007 µg/mL
same,MIC,[1]; isolate 602241 D,0.015 µg/mL
same,MIC,[1]; isolate 602241 F,0.015 µg/mL
same,MIC,[1]; isolate 602270 A,0.015 µg/mL
same,MIC,[1]; isolate 602282 I,0.015 µg/mL
same,MIC,[1]; isolate 602288 16,0.015 µg/mL
same,MIC,[1]; isolate 602302 22,0.015 µg/mL
same,MIC,[1]; isolate 602305 I,0.015 µg/mL
same,MIC,[1]; isolate 602324 8,0.0075 µg/mL
same,MIC,[1]; isolate 602672 12A,0.015 µg/mL
same,MIC Range,Prevotella bivia; # tested 34,0.125 to 1 µg/mL
same,MIC,Prevotella bivia; isolate 601096 25,0.125 µg/mL
same,MIC,Prevotella bivia; isolate 601166 M,0.125 µg/mL
same,MIC,Prevotella bivia; isolate 601202 21,0.5 µg/mL
same,MIC,Prevotella bivia; isolate 601203 5,0.125 µg/mL
same,MIC,Prevotella bivia; isolate 601209 A1,0.125 µg/mL
same,MIC,Prevotella bivia; isolate 601212 9,0.125 µg/mL
same,MIC,Prevotella bivia; isolate 601213 9A,0.25 µg/mL
same,MIC,Prevotella bivia; isolate 601214 B,0.25 µg/mL
same,MIC,Prevotella bivia; isolate 601241 13,0.125 µg/mL
same,MIC,Prevotella bivia; isolate 601243 15,0.125 µg/mL
same,MIC,Prevotella bivia; isolate 601255 10,0.25 µg/mL
same,MIC,Prevotella bivia; isolate 601261 C,0.25 µg/mL
same,MIC,Prevotella bivia; isolate 601283 20,0.25 µg/mL
same,MIC,Prevotella bivia; isolate 601285 14,0.125 µg/mL
same,MIC,Prevotella bivia; isolate 601293 22,0.25 µg/mL
same,MIC,Prevotella bivia; isolate 601305 H,0.125 µg/mL
same,MIC,Prevotella bivia; isolate 601340 31,0.25 µg/mL
same,MIC,Prevotella bivia; isolate 601355 B,1 µg/mL
same,MIC,Prevotella bivia; isolate 601367 M,0.5 µg/mL
same,MIC,Prevotella bivia; isolate 601374 A1,0.25 µg/mL
same,MIC,Prevotella bivia; isolate 601378 B,0.25 µg/mL
same,MIC,Prevotella bivia; isolate 601379 19,0.25 µg/mL
same,MIC,Prevotella bivia; isolate 601388 T,0.25 µg/mL
